Results as given in paper PMC7619385 (ACS infectious diseases, 2025).

What follows are compounds tested against NLuc::LmxCLK1 (Leishmania mexicana, UniProt E9AMP2) (assay: cell-based). Conditions: 10 µM compound, tracer SV366, promastigotes.
Assay type: cell-based
Procedure: All compounds were tested at a fixed concentration of 10 µM to enable direct comparison of their target occupancy in live cells.
Serially diluted probes (5 µL) were added to 85 µL of cells in culture media or 85 µL of purified protein. Final well volumes were adjusted to 100 µL with sterile Opti-MEM™ I Reduced Serum Medium (Thermo-Scientific) – for wells containing cells; or Kinase Buffer - for wells containing purified protein. For tracer displacement assays, samples were prepared as above, but final volume was brought to 100 µL by addition of vehicle or serially-diluted test compounds. Final DMSO concentration in these assays was 1%. […] Light emissions at 460+10 nm (BRET donor) and at 610+20 nm (BRET acceptor) were sequentially recorded (integration time = 0.5 s, gain = 3600) using a luminometer (BMG LABTECH Clariostar or Biotek Synergy HT). BRET values are reported in milli-BRET (mBRET) units (mBU), obtained by dividing the acceptor luminescence by the donor luminescence and multiplying the result by a factor of 1,000. BRET values were converted to blank-corrected probe occupancies (%) according to equation [1]: (1) Probeoccupancy(%)=X−Z/Y−Z×100 where X = mBRET value in the presence of the test compound and the probe, Y = mBRET value in the presence of probe only, and Z = mBRET value in the absence of probe and test compound. […]

Row | SMILES | Target occupancy Run 1 [%] | Target occupancy Run 2 [%]
1 | CN1CC[C@H](c2c(O)cc(O)c3c(=O)cc(-c4ccccc4Cl)oc23)[C@H](O)C1.Cl [Flavopiridol HCl] | 1.6 | -3.3
2 | C#Cc1cccc(Nc2ncnc3cc(OCCOC)c(OCCOC)cc23)c1.Cl [Erlotinib HCl (OSI-744)] | -0.1 | -7.3
3 | COc1cc(N2CCC(N)CC2)ccc1Nc1ncc(Cl)c(-c2c[nH]c3ccccc23)n1 [AZD3463] | 8.0 | -12.9
4 | COc1ccc(Cl)cc1NC(=O)Nc1cc(C)nc2ccccc12 [PQ 401] | -4.0 | 1.2
5 | CC(C)(C)n1nc(-c2ccc(Cl)cc2)c2c(N)ncnc21 [PP2] | -3.1 | 0.5
6 | C[C@H](Nc1ncnc2nc[nH]c12)c1cc2cccc(Cl)c2c(=O)n1-c1ccccc1 [IPI-145 (INK1197)] | -2.8 | 0.6

Same assay, conditions: 10 µM compound, tracer SV366, promastigotes, mean of two experiments

Row | SMILES | Target occupancy Average
7 | CN1CC[C@H](c2c(O)cc(O)c3c(=O)cc(-c4ccccc4Cl)oc23)[C@H](O)C1.Cl [Flavopiridol HCl] | -0.8%
8 | CCOc1cc2ncc(C#N)c(Nc3ccc(F)c(Cl)c3)c2cc1NC(=O)/C=C/CN(C)C [Pelitinib (EKB-569), Pelitinib] | negligible target engagement
9 | C#Cc1cccc(Nc2ncnc3cc(OCCOC)c(OCCOC)cc23)c1.Cl [Erlotinib HCl (OSI-744)] | -3.7%
10 | COc1cc(N2CCC(N)CC2)ccc1Nc1ncc(Cl)c(-c2c[nH]c3ccccc23)n1 [AZD3463] | -2.4%
11 | COc1ccc(Cl)cc1NC(=O)Nc1cc(C)nc2ccccc12 [PQ 401] | -1.4%
12 | CC(C)(C)n1nc(-c2ccc(Cl)cc2)c2c(N)ncnc21 [PP2] | -1.3%
13 | C[C@H](Nc1ncnc2nc[nH]c12)c1cc2cccc(Cl)c2c(=O)n1-c1ccccc1 [IPI-145 (INK1197)] | -1.1%

Same assay, conditions: read-out: Target occupancy Average

Row | SMILES | receptor occupancy at 10 µM [%]
14 | O=C(Nc1ccc(OC(F)(F)F)cc1)c1sccc1NCc1ccnc2ccccc12 [OSI-930] | 0.1
15 | N#CC1(c2ccc(NC(=O)c3cccnc3NCc3ccncc3)cc2)CCCC1 [Apatinib] | -8.5
16 | C[C@@H]1COC(Nc2ccc3ncnc(Nc4ccc(OCc5nccs5)c(Cl)c4)c3c2)=N1 [Varlitinib] | -0.8
17 | Cc1c(Cn2c(C)nc3c(C(=O)O)cc(N4CCOCC4)cc32)cccc1C(F)(F)F [GSK2636771] | -2.2
18 | C=CC(=O)Nc1ccc2ncnc(Nc3ccc(OCc4cccc(F)c4)c(Cl)c3)c2c1 [AST-1306] | -9.2
19 | COc1cc2ncnc(Oc3cccc(NC(=O)Nc4cc(C(C)(C)C(F)(F)F)on4)c3)c2cc1OC [CEP-32496] | -3.7

Same assay, conditions: read-out: Target occupancy Run 1

Row | SMILES | receptor occupancy at 10 µM [%]
20 | O=C(Nc1ccc(OC(F)(F)F)cc1)c1sccc1NCc1ccnc2ccccc12 [OSI-930] | -0.4
21 | N#CC1(c2ccc(NC(=O)c3cccnc3NCc3ccncc3)cc2)CCCC1 [Apatinib] | -9.2
22 | C[C@@H]1COC(Nc2ccc3ncnc(Nc4ccc(OCc5nccs5)c(Cl)c4)c3c2)=N1 [Varlitinib] | 2.7
23 | Cc1c(Cn2c(C)nc3c(C(=O)O)cc(N4CCOCC4)cc32)cccc1C(F)(F)F [GSK2636771] | 2.9
24 | C=CC(=O)Nc1ccc2ncnc(Nc3ccc(OCc4cccc(F)c4)c(Cl)c3)c2c1 [AST-1306] | -7.7
25 | COc1cc2ncnc(Oc3cccc(NC(=O)Nc4cc(C(C)(C)C(F)(F)F)on4)c3)c2cc1OC [CEP-32496] | -2.2

Same assay, conditions: read-out: Target occupancy Run 2

Row | SMILES | receptor occupancy at 10 µM [%]
26 | O=C(Nc1ccc(OC(F)(F)F)cc1)c1sccc1NCc1ccnc2ccccc12 [OSI-930] | 0.6
27 | N#CC1(c2ccc(NC(=O)c3cccnc3NCc3ccncc3)cc2)CCCC1 [Apatinib] | -7.8
28 | C[C@@H]1COC(Nc2ccc3ncnc(Nc4ccc(OCc5nccs5)c(Cl)c4)c3c2)=N1 [Varlitinib] | -4.3
29 | Cc1c(Cn2c(C)nc3c(C(=O)O)cc(N4CCOCC4)cc32)cccc1C(F)(F)F [GSK2636771] | -7.3
30 | C=CC(=O)Nc1ccc2ncnc(Nc3ccc(OCc4cccc(F)c4)c(Cl)c3)c2c1 [AST-1306] | -10.7
31 | COc1cc2ncnc(Oc3cccc(NC(=O)Nc4cc(C(C)(C)C(F)(F)F)on4)c3)c2cc1OC [CEP-32496] | -5.2

Each compound was assayed against T1, LmxCLK1 (Leishmania mexicana, UniProt E9AMP2) (assay: biochemical). Conditions: not given.
T1 sequence (E9AMP2 1-422): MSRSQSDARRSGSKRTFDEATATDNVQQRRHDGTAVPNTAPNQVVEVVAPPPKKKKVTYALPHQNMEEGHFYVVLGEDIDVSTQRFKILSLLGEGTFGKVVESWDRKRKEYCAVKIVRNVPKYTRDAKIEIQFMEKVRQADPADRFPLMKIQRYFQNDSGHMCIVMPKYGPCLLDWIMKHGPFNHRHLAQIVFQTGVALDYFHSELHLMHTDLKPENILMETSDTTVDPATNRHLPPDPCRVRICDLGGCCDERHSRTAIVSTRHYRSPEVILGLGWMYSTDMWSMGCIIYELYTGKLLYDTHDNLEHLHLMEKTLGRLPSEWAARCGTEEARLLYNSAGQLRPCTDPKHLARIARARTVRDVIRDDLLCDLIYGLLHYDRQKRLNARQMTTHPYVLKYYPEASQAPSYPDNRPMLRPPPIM
Assay type: binding

Row | SMILES | ΔTm Average | ΔTm Run 1 | ΔTm Run 2
32 | CC(C)(C)n1nc(-c2ccc(Cl)cc2)c2c(N)ncnc21 [PP2] | 0 °C | 0.2 °C | -0.2
33 | CC(=O)Nc1nc(C)c(-c2ccc(Cl)c(S(=O)(=O)NCCO)c2)s1 [PIK-93] | 0 °C | 0 °C | -0.1
34 | OCCn1cc(-c2cnc3nnn(Cc4ccc5ncccc5c4)c3n2)cn1 [PF-04217903] | 0.2 °C | 0.1 °C | 0.3 °C
35 | CN([C@@H](Cc1ccc(OS(=O)(=O)c2cccc3cnccc23)cc1)C(=O)N1CCN(c2ccccc2)CC1)S(=O)(=O)c1cccc2cnccc12 [KN-62] | -0.3 | -0.4 | -0.2

Same assay, conditions: DSF, 10 µM compound, 2 µM LmxCLK1, Run 1

Row | SMILES | ΔTm Run 1 [°C]
36 | CN1CC[C@H](c2c(O)cc(O)c3c(=O)cc(-c4ccccc4Cl)oc23)[C@H](O)C1.Cl [Flavopiridol HCl] | 0.1
37 | C#Cc1cccc(Nc2ncnc3cc(OCCOC)c(OCCOC)cc23)c1.Cl [Erlotinib HCl (OSI-744)] | 0.1
38 | COc1cc(N2CCC(N)CC2)ccc1Nc1ncc(Cl)c(-c2c[nH]c3ccccc23)n1 [AZD3463] | 0.6
39 | COc1ccc(Cl)cc1NC(=O)Nc1cc(C)nc2ccccc12 [PQ 401] | 0.0

Same assay, conditions: DSF, 10 µM compound, 2 µM LmxCLK1, Run 1; read-out: ΔTm Run 1

Row | SMILES | ΔTm at 10 µM [°C]
40 | O=C(Nc1ccc(OC(F)(F)F)cc1)c1sccc1NCc1ccnc2ccccc12 [OSI-930] | 0.4
41 | N#CC1(c2ccc(NC(=O)c3cccnc3NCc3ccncc3)cc2)CCCC1 [Apatinib] | -0.2
42 | CCOc1cc2ncc(C#N)c(Nc3ccc(F)c(Cl)c3)c2cc1NC(=O)/C=C/CN(C)C [Pelitinib (EKB-569), Pelitinib] | 9.1
43 | C[C@@H]1COC(Nc2ccc3ncnc(Nc4ccc(OCc5nccs5)c(Cl)c4)c3c2)=N1 [Varlitinib] | 0.2
44 | Cc1c(Cn2c(C)nc3c(C(=O)O)cc(N4CCOCC4)cc32)cccc1C(F)(F)F [GSK2636771] | 0.2
45 | C=CC(=O)Nc1ccc2ncnc(Nc3ccc(OCc4cccc(F)c4)c(Cl)c3)c2c1 [AST-1306] | -0.1
46 | COc1cc2ncnc(Oc3cccc(NC(=O)Nc4cc(C(C)(C)C(F)(F)F)on4)c3)c2cc1OC [CEP-32496] | -0.4

Same assay, conditions: DSF, 10 µM compound, 2 µM LmxCLK1, Run 2

Row | SMILES | ΔTm Run 2 [°C]
47 | CN1CC[C@H](c2c(O)cc(O)c3c(=O)cc(-c4ccccc4Cl)oc23)[C@H](O)C1.Cl [Flavopiridol HCl] | -0.1
48 | C#Cc1cccc(Nc2ncnc3cc(OCCOC)c(OCCOC)cc23)c1.Cl [Erlotinib HCl (OSI-744)] | 0.1
49 | COc1cc(N2CCC(N)CC2)ccc1Nc1ncc(Cl)c(-c2c[nH]c3ccccc23)n1 [AZD3463] | 0.3
50 | COc1ccc(Cl)cc1NC(=O)Nc1cc(C)nc2ccccc12 [PQ 401] | -0.2

Same assay, conditions: DSF, 10 µM compound, 2 µM LmxCLK1, Run 2; read-out: ΔTm Run 2

Row | SMILES | ΔTm at 10 µM [°C]
51 | O=C(Nc1ccc(OC(F)(F)F)cc1)c1sccc1NCc1ccnc2ccccc12 [OSI-930] | 0
52 | N#CC1(c2ccc(NC(=O)c3cccnc3NCc3ccncc3)cc2)CCCC1 [Apatinib] | -0.4
53 | CCOc1cc2ncc(C#N)c(Nc3ccc(F)c(Cl)c3)c2cc1NC(=O)/C=C/CN(C)C [Pelitinib (EKB-569), Pelitinib] | 12.5
54 | C[C@@H]1COC(Nc2ccc3ncnc(Nc4ccc(OCc5nccs5)c(Cl)c4)c3c2)=N1 [Varlitinib] | 0
55 | Cc1c(Cn2c(C)nc3c(C(=O)O)cc(N4CCOCC4)cc32)cccc1C(F)(F)F [GSK2636771] | 0.1
56 | C=CC(=O)Nc1ccc2ncnc(Nc3ccc(OCc4cccc(F)c4)c(Cl)c3)c2c1 [AST-1306] | -0.4
57 | COc1cc2ncnc(Oc3cccc(NC(=O)Nc4cc(C(C)(C)C(F)(F)F)on4)c3)c2cc1OC [CEP-32496] | -0.2

Same assay, conditions: DSF, 10 µM compound, 2 µM LmxCLK1, mean of two runs

Row | SMILES | ΔTm Average [°C]
58 | CN1CC[C@H](c2c(O)cc(O)c3c(=O)cc(-c4ccccc4Cl)oc23)[C@H](O)C1.Cl [Flavopiridol HCl] | 0.0
59 | C#Cc1cccc(Nc2ncnc3cc(OCCOC)c(OCCOC)cc23)c1.Cl [Erlotinib HCl (OSI-744)] | 0.1
60 | COc1cc(N2CCC(N)CC2)ccc1Nc1ncc(Cl)c(-c2c[nH]c3ccccc23)n1 [AZD3463] | 0.4
61 | COc1ccc(Cl)cc1NC(=O)Nc1cc(C)nc2ccccc12 [PQ 401] | -0.1

Same assay, conditions: DSF, 10 µM compound, 2 µM LmxCLK1, mean of two runs; read-out: ΔTm Average

Row | SMILES | ΔTm at 10 µM [°C]
62 | O=C(Nc1ccc(OC(F)(F)F)cc1)c1sccc1NCc1ccnc2ccccc12 [OSI-930] | 0.2
63 | N#CC1(c2ccc(NC(=O)c3cccnc3NCc3ccncc3)cc2)CCCC1 [Apatinib] | -0.3
64 | CCOc1cc2ncc(C#N)c(Nc3ccc(F)c(Cl)c3)c2cc1NC(=O)/C=C/CN(C)C [Pelitinib (EKB-569), Pelitinib] | 10.8 ± 1.7
65 | C[C@@H]1COC(Nc2ccc3ncnc(Nc4ccc(OCc5nccs5)c(Cl)c4)c3c2)=N1 [Varlitinib] | 0.1
66 | Cc1c(Cn2c(C)nc3c(C(=O)O)cc(N4CCOCC4)cc32)cccc1C(F)(F)F [GSK2636771] | 0.1
67 | C=CC(=O)Nc1ccc2ncnc(Nc3ccc(OCc4cccc(F)c4)c(Cl)c3)c2c1 [AST-1306] | -0.2
68 | COc1cc2ncnc(Oc3cccc(NC(=O)Nc4cc(C(C)(C)C(F)(F)F)on4)c3)c2cc1OC [CEP-32496] | -0.3
